In paper PMC8222394 (Nature Communications, 2021):
pIC50: −log10 of the molar value. “And” between values parts separate entries of the source, which are not always exact repeats. Equal entries are not always repeated. Where two headings read alike, the source gives them in different places.

Assays:
[1] = design: method as in Selleck L1300 library file; settings: ref Selleck L1300 library file, cited from earlier work
SARS-CoV-2 pseudovirus [2] = type: cell-based
TMPRSS2 = TMPRSS2 (Homo sapiens, UniProt O15393); assay: TMPRSS2 activity assay (Boc-Gln-Ala-Arg-MCA fluorescence); type: biochemical; design: purchased LSBio; settings: replicates
TMPRSS2, sequence (O15393 106-492): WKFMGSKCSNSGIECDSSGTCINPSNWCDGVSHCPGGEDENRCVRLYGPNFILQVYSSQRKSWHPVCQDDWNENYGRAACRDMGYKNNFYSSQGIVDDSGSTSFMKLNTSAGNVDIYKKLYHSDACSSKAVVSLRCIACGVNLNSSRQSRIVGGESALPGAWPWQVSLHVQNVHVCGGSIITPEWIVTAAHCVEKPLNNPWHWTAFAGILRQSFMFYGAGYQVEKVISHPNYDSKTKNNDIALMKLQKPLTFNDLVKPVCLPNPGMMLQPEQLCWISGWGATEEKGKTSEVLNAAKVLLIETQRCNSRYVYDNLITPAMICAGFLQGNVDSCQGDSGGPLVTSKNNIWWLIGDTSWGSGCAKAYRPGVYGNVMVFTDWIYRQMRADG
Method: Fluorescence (380-15 nm excitation/470-20 nm emission) of the samples was monitored over 4:45 h and the slope of the curves was calculated by linear regression analysis and used as output for TMPRSS2 activity.

SARS-CoV-2 pseudovirus [3] = assay: microbe, parasite or virus in culture; type: cell-based; settings: for pIC50: Severe acute respiratory syndrome-related coronavirus, Caco-2, read-out: In vitro IC50 (viral entry)
[4] = human, cited from earlier work
in vitro = settings: human
[5] = tested on: TMPRSS2-HiBiT-BEAS-2B cells
B-RafV600E = tested on: B-RafV600E; design: method as in selleckchem.com; settings: ref selleckchem.com, cited from earlier work

C[C@H]1O[C@H](O[C@H]2[C@H](O)[C@@H](O)[C@@H](O[C@H]3[C@H](O)[C@@H](O)C(O)O[C@@H]3CO)O[C@@H]2CO)[C@H](O)[C@@H](O)[C@@H]1N[C@H]1C=C(CO)[C@@H](O)[C@H](O)[C@H]1O (stereo partly drawn) [Acarbose]
DMSO (mM)Max Solubility [1]: 154.89 mM | DMSO (mg/mL)Max Solubility [1]: 100.00 mg/mL | water (mM)Max Solubility ([1]; water): 154.89 mM | water (mg/mL)Max Solubility ([1]; water): 100.00 mg/mL

CNC(=O)c1ccccc1Sc1ccc2c(/C=C/c3ccccn3)n[nH]c2c1 [Axitinib]
DMSO (mM)Max Solubility [1]: 90.56 mM | DMSO (mg/mL)Max Solubility [1]: 35.00 mg/mL | water (mg/mL)Max Solubility ([1]; water): <1 mg/mL

CN(C)C(=O)COC(=O)Cc1ccc(OC(=O)c2ccc(NC(=N)N)cc2)cc1 [Camostat]
signal relative to Vehicle (FigS7 source data) (SARS-CoV-2 pseudovirus [2]): 0.7432 and 0.6624 and 0.6548 | TMPRSS2 activity (FigS9 source data) (TMPRSS2; 0.08 µM): -0.0086 and -0.0028 and 0.0044 and -0.0059 | TMPRSS2 activity (FigS9 source data) (TMPRSS2; 0.4 µM): -0.037 and -0.0342 and -0.033 and -0.0254 | TMPRSS2 activity (FigS9 source data) (TMPRSS2; 2 µM): -0.0401 and -0.0361 and -0.044 and -0.0525

COCCOC(=O)C1=C(C)NC(C)=C(C(=O)OC/C=C/c2ccccc2)C1c1cccc([N+](=O)[O-])c1 (stereo not drawn) [Cilnidipine]
viral entry (SARS-CoV-2 pseudovirus [3]): effective in reducing viral entry | pIC50 (SARS-CoV-2 pseudovirus [3]): ~5.52 | Cmax ([4]; 10 mg Oral (QD)): 18.1 nM | CC50 (in vitro): > 10 µM

Cc1nc(Nc2ncc(C(=O)Nc3c(C)cccc3Cl)s2)cc(N2CCN(CCO)CC2)n1 [Dasatinib]
viral entry (SARS-CoV-2 pseudovirus [3]): effective in reducing viral entry | pIC50 (SARS-CoV-2 pseudovirus [3]): < 5.00 | Cmax ([4]; 140 mg Oral (QD)): 307 nM | signal relative to Vehicle (FigS7 source data) (SARS-CoV-2 pseudovirus [2]): 0.6399 and 0.7584 and 0.6593 | CC50 (in vitro): > 10 µM

COC(=O)Nc1nc2cc(C(=O)c3ccc(F)cc3)ccc2[nH]1 [Flubendazole]
ATP Glo ([5]; conc 3): 0.991 and 1.045 and 1.023

Cc1nc(C(=O)NCC(=O)O)c(O)c2ccc(Oc3ccccc3)cc12 [Roxadustat (FG-4592), Roxadustat]
DMSO (mM)Max Solubility [1]: 198.67 mM | DMSO (mg/mL)Max Solubility [1]: 70.00 mg/mL | water (mg/mL)Max Solubility ([1]; water): <1 mg/mL

Cc1coc2c1C(=O)C(=O)c1c-2ccc2c1CCCC2(C)C [Tanshinone IIA]
ATP Glo ([5]; conc 0.01): 1.137 and 1.427 and 1.128

CCCS(=O)(=O)Nc1ccc(F)c(C(=O)c2c[nH]c3ncc(-c4ccc(Cl)cc4)cc23)c1F [Vemurafenib (PLX4032, RG7204), Vemurafenib]
DMSO (mM)Max Solubility [1]: 197.99 mM | DMSO (mg/mL)Max Solubility [1]: 97.00 mg/mL | water (mg/mL)Max Solubility ([1]; water): <1 mg/mL | pIC50 (B-RafV600E; cell-free assay): 7.51 | selectivity for B-RafV600E over wild-type B-Raf (B-RafV600E; enzymatic assays): 10 fold

CC1(C)CCC(CN2CCN(c3ccc(C(=O)NS(=O)(=O)c4ccc(NCC5CCOCC5)c([N+](=O)[O-])c4)c(Oc4cnc5[nH]ccc5c4)c3)CC2)=C(c2ccc(Cl)cc2)C1 [Venetoclax]
viral entry (SARS-CoV-2 pseudovirus [3]): effective in reducing viral entry | pIC50 (SARS-CoV-2 pseudovirus [3]): < 5.00 | Cmax ([4]; 400 mg Oral (QD)): 1270 nM | signal relative to Vehicle (FigS7 source data) (SARS-CoV-2 pseudovirus [2]): 0.618 and 0.6416 and 0.6544 | CC50 (in vitro): > 10 µM

Verteporfin [reference compound]
CC50 [5]: > 10 µM
